In patent US5759768A, “Assays for factors affecting circularization of DNA, assays for factors affecting DNA integration, factors, and uses thereof” (priority 1995, dated 1998):
Read-outs that look alike come from different tables or passages of the source.

Columns and labels:
Format in all cases: biochemical, HIV-1
[1] = system: linear viral DNA (circularization)
Protocol: (§1) The chronically HIV-1 infected Molt IIIB human T cell line (HTLV IIIB virus strain) was the source of virus for cell-free infections. This human T cell line constitutively produces a low level of the HTLV-111B strain of HIV-1. Culture supernatant containing a high concentration of virus was prepared by incubating 300×10^6 Molt IIIB cells in 50 ml fresh RPMI 1640 medium containing 20% fetal calf serum and 10 ng of phorbol 12-myristate 13-acetate per ml for 20-24 hours. […] Cytoplasmic extracts (3 ml) were prepared 4-4.5 hours post-infection, by a modification of the procedure of Brown et al., Cell 49: 342-356 (1987).
(§2) At specified times after infection, cells were washed twice with buffer K (20 mM Hepes, pH 7.4, 150 mM KCl, 5 mM MgCl2, 1 mM dithiothreitol, […]) and then lysed at a concentration of 33×10^6 cells per ml in the same buffer containing 0.025% digitonin or 0.025% Triton X-100. Cells were extracted for 10 minutes at room temperature, and the lysate was centrifuged at 1000×g for 3 minutes, and is referred to as "cytoplasmic extract". Cytoplasmic extract was the source of viral DNA for analyses in the assays described below. The pellet from the initial low-speed centrifugation contained cell debris and intact nuclei and is called the "nuclear pellet". Cell extracts from uninfected SupT1 cells were prepared in the same manner.
Viral DNA present in cytoplasmic extracts was deproteinated by incubation with proteinase K (1 mg/ml)/10 mM EDTA/0.5% SDS for 1 hour at 55° C. Samples were extracted successively with phenol/chloroform [1:1 (vol/vol)] and chloroform. DNA was ethanol-precipitated, washed with 70% ethanol, resuspended in 10 mM Tris.HCI (pH 7.4), and treated with RNase A (20 μpg/ml)for 1 hour at […]. before analysis by agarose gel electrophoresis and Southern blotting.
(§3) DNA samples were layered on 0.8% agarose gels and electrophoresed at 1 V/cm for 15 hour in Tris/acetate/EDTA buffer. After electrophoresis, DNA was blotted by capillary action onto nitrocellulose (0.45 μm, Schleicher & Schuell).
Cell extracts were prepared from cells four to five hours after infection with HIV-1, using the above-described methods to yield fully functional viral preintegration complexes. […] In all cases, a HIV-1 LTR-containing DNA fragment was used as a hybridization probe. Therefore, only LTR-containing DNA fragments are detected. […] Lane 5: Unintegrated viral DNA prepared by Hirt extraction of SupT1 cells infected 24 hours earlier with concentrated HIV-1. […] Viral DNA was purified from extracts incubated with 1 mM ATP for 15 minutes (lanes 1 and 4), with 1 mM ATP for 45 minutes (lanes 3 and 6), or with 1 mM ATPγS for 45 minutes (lanes 2 and 5). Lanes 1-3: uncut viral DNA; lanes 4-6: viral DNA was cut with SalI prior to electrophorosis. Lane 7: linear viral DNA, prepared from untreated extracts was digested with SalI prior to electrophorosis. Lane 8: unintegrated viral DNA prepared by Hirt extraction of infected cells, as described with respect to FIG. 14, digested with SalI prior to electrophoresis. […] Lanes 1-3. Viral DNA prepared from extracts treated with 1 mM ATP for 15 minutes, 30 minutes and 45 minutes, respectively. Lane 4: Viral DNA prepared from extract treated with 1 mM ATPγS for 45 minutes. Lanes 5-7: products of reactions shown in lanes 1-3, respectively, digested with SalI and PstI prior to electrophoresis. Lane 8: SalI, PstI digestion of viral DNA prepared from extract treated with 1 mM ATP for 90 minutes. Lane 9: SalI, PstI digestion of reaction products shown in lane 4. Lane 10: SalI, PstI digestion of unintegrated viral DNA prepared by Hirt extraction of infected cells.

[2] = system: purified linear viral DNA; assay: Circularization of purified linear viral DNA in cytoplasmic extracts of uninfected SupT1 cells; conditions: 1 mM, 37° C., 45 min
Protocol: Further evidence of a role for host proteins in the formation of the 1-LTR and simple 2-LTR circular forms of viral DNA was obtained by testing the ability of uninfected cell extracts to mediate the circularization of purfied viral DNA. Linear viral DNA was prepared from cytoplasmic extracts of uninfected cells by SDS-proteinase K treatment and phenol extraction. The purfied DNA was added to cytoplasmic extracts prepared form uninfected SupT1 cells, in the presence or absence of added ATP.
Linear viral DNA was purified from cytoplasmic extracts of cells 4 hours post-infection as described above. In FIG. 22, a purified linear viral DNA was added to cytoplasmic extracts from uninfected SupT1 cells and incubated at 37° C. for 45 minutes. The uninfected SupT1 cells used for the preparation of extracts were either untreated (lanes 3-11) or cultured in the presence of 10 ng/ml phorbol 12-myristate 13-acetate for six hours prior to extraction (lane 2). […] Lanes 2-11: reaction products following incubation of purified linear viral DNA in uninfected extracts containing 1 mM ATP (lanes 2 and 3), nothing added (lane 4), 1 mM dATP (lane 5), 1 mM UTP (lane 6), 1 mM CTP (lane 7), 1 mM GTP (lane 8), 1 mM ATPγS (lane 9), or 1 mM ADP (lane 10). Lane 11: uninfected SupT1 cell extract was treated with proteinase K for 10 minutes at 37° C., then linear viral DNA was added and incubation continued for 45 minutes. In FIG. 23, lanes 1, 2, 4 and 5: purified linear viral DNA was incubated with T4 DNA ligase (lane 1), T4 polynucleotide kinase and T4 DNA ligase (lane 2), Klenow fragment of E. coli DNA polymerase I and T4 DNA ligase […], or Klenow fragment, T4 polynucleotide kinase, and T4 DNA ligase (lane 4). Lanes 3 and 6: in vitro circularization reaction products generated in cell extracts, included as size standards. Lane 3: cytoplasmic extracts from infected cells were incubated with […] for 45 minutes; lane 6: purified linear viral DNA was incubated with cytoplasmic extract from uninfected SupT1 cells in the presence of 1 mM ATP for 45 minutes. The possibility that a host DNA ligase was responsible for the formation of the simple 2-LTR circles was examined by testing the ability of phage T4 ligase to catalyze the circularization of linear viral DNA. […] Restriction endonuclease analysis of the reaction products formed in the presence of both Klenow fragment and T4 DNA ligase confirmed the formation of new 2-LTR junctions (not shown). […] This observation is consistent with previous reports that linear viral DNA prepared from cells infected with the murine leukemia virus [Fujiwara and Mizuuchi, Cell, 54:497-504 (1988) and HIV-1 [Pauza, Virology, 179:886-887 (1990)] consists of a mixture of molecules that are either blunt-ended or recessed by two nucleotides at each 3'-terminus. The removal of the two terminal nucleotides is mediated by the viral integrase as a necessary step in the process of integration [Roth et al., Cell 58: 47-54 (1989)]. […] This would explain the requirement of DNA polymerase for the subsequent joining of the ends of viral DNA by DNA ligase.

[3] = system: viral DNA integrated into .phi.X174 target DNA; conditions: for inhibition of integration: 90 min incubation
Protocol: as §1, §2, §3
In Vitro Integration Reaction
Pst I-linearized (replicative form III) .phi.X174 DNA, relaxed circular (replicative form II) .phi.X174 DNA, and single-stranded M13 DNA were used as targets for the in vitro integration of viral DNA. Target DNA was added to cytoplasmic extracts of intected SupT1 cells to a concentration of 10 μg/ml, and reaction mixtures were incubated at […]. Reactions, were stopped by the addition of SDS and proteinase K.
Cytoplasmic extracts prepared from SupT1 cells 4 hours after infection with HIV-1 were incubated with exogenously added target DNA under integration reaction conditions. Products of the reactions were analyzed by Southern blot hybridization. The time course of integration into linear .phi.X174 DNA target was determined. Target DNA was added to the extract and the reaction was stopped after 0,5,15,30, or 45 minutes of incubation at 37° C. (FIG. 11, lanes a-e, respectively). Purified linear viral DNA was incubated for 1 hour at 37° C. with cytoplasmic extract prepared from uninfected SupT1 cells (lane f). […] Arrows in the Figure indicate the positions of viral DNA products. L, linear viral DNA:I, integration product. Integration was detected by the shift of linear viral DNA on Southern blots from the characteristic 9.7-kilobase (kb) position to a position corresponding to viral DNA plus target DNA.

With Nc1ccn([C@@H]2O[C@H](COP(=O)(O)OP(=O)(O)OP(=O)(O)O)[C@@H](O)[C@H]2O)c(=O)n1 [CTP, cytosine triphosphate] the “induction of 1-LTR circular form” value [1] was “induced the formation of only a small amount of the 1-LTR circular form”, the “induction of 2-LTR circles” value [1] was “induced the formation of 2-LTR circles” and the “1-LTR circles from purified linear viral DNA” value [2] was “able to induce the formation of 1-LTR circles”. For the same compound, the “2-LTR circles from purified linear viral DNA” value [2] was “failed to induce the formation of detectable 2-LTR circles”.
O=C(O)CN(CCN(CC(=O)O)CC(=O)O)CC(=O)O [EDTA] was tested, and the “detectable integration in vitro” value ([3]; 1 mM EDTA, buffer devoid of added MgCl2) was “absence of detectable integration”, the “Relative activity, % of standard” value ([3]; -Mg2+/+EDTA, target DNA 10 μg/ml) was 0 % of standard and the detectable circle formation [1] was “abolished detectable circle formation”.
With [Cl-].[K+] [KCl] the “Relative activity, % of standard” value ([3]; KCl 100 mM, target DNA 10 μg/ml) was 85 % of standard, the “detectable integration in vitro” value ([3]; KCl 250 mM or greater) was “completely abolished detectable integration” and the “Relative activity, % of standard” value ([3]; KCl 250 mM, target DNA 10 μg/ml) was 0 % of standard. For the same compound, the “KCl concentration of most efficient formation of 1-LTR circles” value ([1]; 1 mM ATP, 37° C., 90 min) was 125 mM, the “circular forms at KCl concentration” value ([1]; 100 mM KCl, 1 mM ATP, 90 min) was 1-LTR circles were formed almost exclusively and the “circular forms at higher salt concentrations” value ([1]; higher KCl concentrations (lane 6: 250 mM), 1 mM ATP, 90 min) was “most entirely of the 2-LTR form”. For the same compound, the “1-LTR [KCl] optimum” value ([1]; table) was 125 mM and the “Autointegration [KCl] optimum” value ([1]; table) was 150 to 175 mM.
[Cl-].[Na+] [NcCl] was tested, and the “Relative activity, % of standard” value [3] was 100 % of standard.
O=c1ccn([C@@H]2O[C@H](COP(=O)(O)OP(=O)(O)OP(=O)(O)O)[C@@H](O)[C@H]2O)c(=O)[nH]1 [UTP] was tested, and the “induction of 1-LTR circular form” value ([1]; 1 mM, 37° C., 45 min) was “induced the formation of only a small amount of the 1-LTR circular form”, the “induction of 2-LTR circles” value ([1]; 1 mM, 37° C., 45 min) was “induced the formation of 2-LTR circles” and the “1-LTR circles from purified linear viral DNA” value [2] was “able to induce the formation of 1-LTR circles”. For the same compound, the “2-LTR circles from purified linear viral DNA” value [2] was “failed to induce the formation of detectable 2-LTR circles”.
In the case of CC[C@@]1(O)C(=O)OCc2c1cc1n(c2=O)Cc2cc3ccccc3nc2-1 [camptothecin], the inhibition of integration ([3]; 5 μM) is reported as “about 50%” and the inhibition of integration ([3]; 50 μM) is reported as “about 100%”.
With Nc1ncnc2c1ncn2[C@H]1C[C@H](O)[C@@H](COP(=O)(O)OP(=O)(O)OP(=O)(O)O)O1 [dATP, deoxyadenosine triphosphate] the “induction of both circular forms” value ([1]; 1 mM, 37° C., 45 min) was “induced both circular forms with an efficiency comparable to ATP”, the “1-LTR circles from purified linear viral DNA” value [2] was “able to induce the formation of 1-LTR circles” and the “2-LTR circles from purified linear viral DNA” value [2] was “failed to induce the formation of detectable 2-LTR circles”.
In the case of alkaline phosphatase, the “effect on the in vitro integration reaction” value ([3]; pretreatment of linear target DNA) is reported as “no effect on the in vitro integration reaction”.
